The test system of experiment [1] is neuroblastoma/glioma cells (NG 108-15). Briefly: Formation of tritiated CDP-choline from tritiated choline in neuroblastoma/glioma cells. In kind it is cell-based. The note with it: NG 108-15 cells, cytidine 25 µM, 90 minutes. The text has this: CDP-choline is the immediate precursor for the phosphatidylcholine in membranes of neurons and other cells and its formation controls the production of phosphatidylcholine.

The subject of experiment [2] is brain levels of cytidine and cytidine-(5')-diphosphate-choline (CDP-choline). The note with it: rats, cytidine 1 g/kg ip, sacrificed after 1 hour, vs placebo.

Take `Nc1ccn([C@@H]2O[C@H](CO)[C@@H](O)[C@H]2O)c(=O)n1` [cytidine]: the “newly-formed CDP-choline in cells incubated with supplemental cytidine vs without cytidine” value in experiment [1] is “almost twice as much”. Also, the “brain CDP-choline levels rose by” value in experiment [2] is “about 50%”.

The record behind these values is patent publication EP0408668B1 (MASSACHUSETTS INSTITUTE OF TECHNOLOGY, priority 1988, dated 1990).
